One may read the pIC50 as −log10 of the IC50, conventionally taken in molar units. One may read the IC90 as the concentration at which the effect reaches the 90% level.

The results in this text go back to paper PMC3216401 (Antiviral research, 2011).

Series [1] concerns A/Hong Kong/2369/2009 (H1N1) oseltamivir resistant.
Series [2] has the same test system. Kind of series: microbe, parasite or virus in culture. The following applies: Influenza A virus, H1N1, MDCK, read-out: IC50, Neutral Red Uptake Assay.
For series [3] the test system is unchanged. Kind of series: microbe, parasite or virus in culture. To be noted: Influenza A virus, H1N1, MDCK, read-out: IC50, Visual Assay.
The test system is the same in series [4]. The source holds these as a separate data set.
The test system is the same in series [5]. Kind of series: microbe, parasite or virus in culture. In kind it is cell-based. The following applies: Influenza A virus, H1N1, MDCK, read-out: IC90, VYR Assay.

SMILES strings stand for the structures. pIC50: −log10 of the molar value. Where two headings read alike, the source gives them in different places.

`Nc1ccn([C@@H]2O[C@H](CO)[C@@H](O)[C@H]2F)c(=O)n1` [2’-deoxy-2’-fluorocytidine, 2'-deoxy-2'-fluorocytidine]: in series [1], the “SI (CC50/IC50), Neutral Red Uptake Assay” value is greater than 12.8. For the same molecule, the pIC50 in series [2] was 5.11; in series [3] it was 5.68. The “SI (CC50/IC50), Visual Assay” value in series [4] is greater than 48. In addition, the 90% effect concentration (IC90) in series [5] amounted to 6300 nM.
On to `Nc1ccn([C@@H]2O[C@H](CO)[C@@H](O)C2(F)F)c(=O)n1` [2’-deoxy-2’, 2’-difluorocytidine, reference compound], for which the “SI (CC50/IC50), Neutral Red Uptake Assay” value in series [1] is on record as greater than 1900. Besides, the pIC50 in series [2] was 7.27; in series [3] it was 7.30. For the same molecule, the “SI (CC50/IC50), Visual Assay” value in series [4] was greater than 200. In addition, the IC90 in series [5] was determined as 30 nM.
